Broadly, the IC50 is the concentration that gives 50% inhibition.

From patent US11878975B2, “Substituted indole compounds useful as TLR inhibitors” (BRISTOL-MYERS SQUIBB COMPANY, priority 2017, dated 2024) come the findings set out here.

Format in all cases: cell-based
One test deals with T1, human TLR8 (Homo sapiens, UniProt Q9NR97).
T1 construct: host or cells: HEK-Blue cells
T1 sequence (Q9NR97 27-1041): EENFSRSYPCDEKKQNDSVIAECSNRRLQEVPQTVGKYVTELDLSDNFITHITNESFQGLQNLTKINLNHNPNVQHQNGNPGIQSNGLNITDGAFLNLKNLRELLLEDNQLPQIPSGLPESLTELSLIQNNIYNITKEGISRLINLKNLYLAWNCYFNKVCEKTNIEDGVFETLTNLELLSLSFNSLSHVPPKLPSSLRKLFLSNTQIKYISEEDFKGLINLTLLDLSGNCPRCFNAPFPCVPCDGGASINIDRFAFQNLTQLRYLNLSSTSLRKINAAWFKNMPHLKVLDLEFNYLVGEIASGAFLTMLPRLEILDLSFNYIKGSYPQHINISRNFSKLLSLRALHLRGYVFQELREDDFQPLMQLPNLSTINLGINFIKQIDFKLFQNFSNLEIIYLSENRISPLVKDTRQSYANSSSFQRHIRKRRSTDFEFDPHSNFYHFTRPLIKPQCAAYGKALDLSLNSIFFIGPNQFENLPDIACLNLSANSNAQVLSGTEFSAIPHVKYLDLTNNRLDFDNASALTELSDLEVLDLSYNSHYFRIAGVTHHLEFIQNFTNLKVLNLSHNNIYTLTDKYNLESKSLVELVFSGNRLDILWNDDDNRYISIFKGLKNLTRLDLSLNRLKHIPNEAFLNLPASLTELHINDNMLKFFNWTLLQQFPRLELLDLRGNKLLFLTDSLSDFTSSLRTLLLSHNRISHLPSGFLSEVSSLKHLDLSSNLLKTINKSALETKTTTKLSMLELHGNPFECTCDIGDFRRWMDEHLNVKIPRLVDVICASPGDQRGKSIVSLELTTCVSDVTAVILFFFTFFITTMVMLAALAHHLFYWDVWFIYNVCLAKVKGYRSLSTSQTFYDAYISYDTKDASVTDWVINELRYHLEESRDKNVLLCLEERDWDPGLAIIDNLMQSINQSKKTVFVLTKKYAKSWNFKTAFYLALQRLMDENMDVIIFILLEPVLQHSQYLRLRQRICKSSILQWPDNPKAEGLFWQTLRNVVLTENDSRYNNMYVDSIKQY
Nature of the test: TLR8 inhibition reporter assay (HEK-Blue cells, SEAP reporter, R848 stimulation). The settings on record: HEK-Blue cells overexpressing human TLR8, SEAP reporter, R848 15.9 μM. In outline:
(§1)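 HEK-Blue cells with NF-κB/AP-1-driven SEAP reporter, pre-treated 30 min at room temperature with compound (0.05 nM-50 μM). Stimulants: gardiquimod 7.5 μM (TLR7), R848 15.9 μM (TLR8) or ODN2006 5 nM (TLR9). SEAP measured after 22 h at 37° C.; percent inhibition versus agonist-plus-DMSO and known-inhibitor wells.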
A general note: A reporter such as luciferase makes a cellular process visible.

The next test deals with T2, human TLR9 (Homo sapiens, UniProt Q9NR96).
T2 construct: host or cells: HEK-Blue cells
T2 sequence (Q9NR96 26-1032): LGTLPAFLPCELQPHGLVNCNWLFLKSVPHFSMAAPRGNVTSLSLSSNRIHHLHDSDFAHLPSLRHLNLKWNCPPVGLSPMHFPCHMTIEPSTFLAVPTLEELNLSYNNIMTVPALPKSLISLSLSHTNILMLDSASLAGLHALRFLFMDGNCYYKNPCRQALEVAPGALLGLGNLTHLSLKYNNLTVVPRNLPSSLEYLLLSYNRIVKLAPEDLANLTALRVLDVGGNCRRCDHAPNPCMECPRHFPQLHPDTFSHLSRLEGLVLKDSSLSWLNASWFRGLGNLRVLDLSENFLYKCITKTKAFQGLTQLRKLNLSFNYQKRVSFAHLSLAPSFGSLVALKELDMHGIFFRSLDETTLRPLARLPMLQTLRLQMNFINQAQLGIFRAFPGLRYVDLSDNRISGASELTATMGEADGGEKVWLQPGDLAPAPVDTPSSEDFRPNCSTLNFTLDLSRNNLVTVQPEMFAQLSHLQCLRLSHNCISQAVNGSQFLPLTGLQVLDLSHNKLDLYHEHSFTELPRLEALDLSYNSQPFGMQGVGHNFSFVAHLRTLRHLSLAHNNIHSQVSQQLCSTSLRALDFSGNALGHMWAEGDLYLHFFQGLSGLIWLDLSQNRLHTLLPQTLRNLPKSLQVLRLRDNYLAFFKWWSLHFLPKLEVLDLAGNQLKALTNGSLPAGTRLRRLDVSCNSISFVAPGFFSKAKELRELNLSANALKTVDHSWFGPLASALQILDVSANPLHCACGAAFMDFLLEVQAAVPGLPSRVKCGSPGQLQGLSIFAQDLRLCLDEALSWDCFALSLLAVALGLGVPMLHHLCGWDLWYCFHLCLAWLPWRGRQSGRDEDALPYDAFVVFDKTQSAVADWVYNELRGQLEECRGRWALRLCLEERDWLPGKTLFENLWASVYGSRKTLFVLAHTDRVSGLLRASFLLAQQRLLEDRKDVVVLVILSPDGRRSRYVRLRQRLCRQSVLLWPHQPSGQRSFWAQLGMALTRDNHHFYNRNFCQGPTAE
Nature of the test: TLR9 inhibition reporter assay (HEK-Blue cells, SEAP reporter, ODN2006 stimulation). The settings on record: HEK-Blue cells overexpressing human TLR9, SEAP reporter, ODN2006 5 nM. In outline:
as §1

The target of the next test is T3, human TLR7 (Homo sapiens, UniProt Q9NYK1).
T3 construct: host or cells: HEK-Blue cells
T3 sequence (Q9NYK1 27-1049): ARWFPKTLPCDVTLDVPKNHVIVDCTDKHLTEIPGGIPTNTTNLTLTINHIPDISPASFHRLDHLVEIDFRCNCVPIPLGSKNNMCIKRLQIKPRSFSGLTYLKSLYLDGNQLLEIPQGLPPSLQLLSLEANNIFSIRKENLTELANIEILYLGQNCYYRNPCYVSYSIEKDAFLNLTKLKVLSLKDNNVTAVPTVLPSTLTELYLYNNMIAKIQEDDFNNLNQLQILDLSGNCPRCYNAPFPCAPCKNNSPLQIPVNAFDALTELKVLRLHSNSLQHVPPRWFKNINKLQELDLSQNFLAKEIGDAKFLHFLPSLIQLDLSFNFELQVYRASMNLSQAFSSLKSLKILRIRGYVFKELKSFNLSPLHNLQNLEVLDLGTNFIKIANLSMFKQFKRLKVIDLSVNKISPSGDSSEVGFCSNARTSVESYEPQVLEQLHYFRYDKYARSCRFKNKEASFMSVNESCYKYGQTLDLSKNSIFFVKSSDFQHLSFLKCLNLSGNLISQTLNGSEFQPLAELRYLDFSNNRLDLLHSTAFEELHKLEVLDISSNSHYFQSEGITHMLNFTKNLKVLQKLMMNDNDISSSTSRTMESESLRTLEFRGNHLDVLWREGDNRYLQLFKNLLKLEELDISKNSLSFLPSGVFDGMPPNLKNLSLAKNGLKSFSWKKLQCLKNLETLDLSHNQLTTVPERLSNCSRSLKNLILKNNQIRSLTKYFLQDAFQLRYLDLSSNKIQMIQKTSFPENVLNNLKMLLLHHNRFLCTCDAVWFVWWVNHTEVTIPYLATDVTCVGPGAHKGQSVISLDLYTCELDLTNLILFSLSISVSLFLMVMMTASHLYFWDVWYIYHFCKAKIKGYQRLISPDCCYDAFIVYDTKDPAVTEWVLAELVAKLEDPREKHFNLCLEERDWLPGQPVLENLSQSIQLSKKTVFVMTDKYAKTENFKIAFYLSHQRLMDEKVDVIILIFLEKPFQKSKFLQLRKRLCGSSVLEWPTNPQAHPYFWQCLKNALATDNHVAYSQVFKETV
Nature of the test: TLR7 inhibition reporter assay (HEK-Blue cells, SEAP reporter, gardiquimod stimulation). The settings on record: HEK-Blue cells overexpressing human TLR7, SEAP reporter, gardiquimod 7.5 μM. In outline: as §1

In the case of `CNC(=O)CNC1CCC(c2ccc3[nH]c(-c4cc(C)c5ncnn5c4)c(C(C)C)c3c2)CC1` (single isomer, unassigned) [Example 163, 2-((4-(3-isopropyl-2-(8-methyl-[1,2,4]triazolo[1,5-a]pyridin-6-yl)-1H-indol-5-yl)cyclohexyl)amino)-N-methylacetamide], the half-maximal inhibitory concentration (IC50) on human TLR8 amounted to 0.64 nM; against human TLR9, 2240 nM; at human TLR7 it was 0.63 nM.
In the same order, the values of `Cc1c(-c2[nH]c3ccc(C4CC(NCCS(C)(=O)=O)C4)cc3c2C(C)C)cn2ncnc2c1C` (stereo not drawn) [Example 572] are 0.31 nM, 4960 nM and 0.93 nM.
In the same order, the values of `Cc1c(-c2[nH]c3ccc(C4CN(CC(=O)N(C)C)C(C)(C)CO4)cc3c2C(C)C)cn2ncnc2c1C` (stereo not drawn) [Example 386] are 49 nM, over 50000 nM and 34 nM.
The matching figures for `Cc1c(-c2[nH]c3ccc(C4CN(CC#N)C4)cc3c2C(C)C)cn2ncnc2c1C` [Example 553]: 7.2 nM, 32300 nM and 4 nM.
On to `Cc1cc(-c2[nH]c3ccc(C4CCCNC4)cc3c2C(C)C)ccn1` (stereo not drawn) [Example 184], for which the results for the half-inhibitory concentration (IC50) against human TLR8, on human TLR9 and against human TLR7 were 3.8 nM, 866 nM and 12 nM, respectively.
In the same order, the values of `Cc1cc(-c2[nH]c3ccc(C4CCCN(C5CCN(C(C)C)CC5)C4)cc3c2C(C)C)cc(C)n1` (stereo not drawn) [Example 245] are 19 nM, 419 nM and 104 nM.
In the same order, the values of `CCN(C)C1CCC(c2ccc3[nH]c(-c4cn5ncnc5c(C)c4C)c(C(C)C)c3c2)CC1` (stereo not drawn) [Example 87] are 0.63 nM, 1910 nM and 0.32 nM.
In the same order, the values of `COc1cc(-c2[nH]c3ccc(CCC4CN(C(=O)CN(C)C)C4)cc3c2C(C)C)cn2ncnc12` [Example 439] are 6.3 nM, 2240 nM and 1 nM.
For the compound `Cc1c(-c2[nH]c3ccc(C4CN(C)C4)cc3c2C(C)C)cn2ncnc2c1C` [Example 547], the IC50 was 0.67 nM on human TLR8, 4550 nM against human TLR9 and 0.37 nM at human TLR7.
Take `Cc1cc(-c2[nH]c3ccc(C4CN(CCS(C)(=O)=O)C4)cc3c2C(C)C)cn2ncnc12` [Example 264]: the IC50 is 19 nM at human TLR8, 8170 nM on human TLR9 and 3 nM against human TLR7.
In the same order, the values of `CCCN1CC(c2ccc3[nH]c(-c4cn(C)c(=O)c(C)c4C)c(C(C)C)c3c2)C1` [Example 488] are 6 nM, 4240 nM and 22 nM.
The matching figures for `Cc1c(-c2[nH]c3ccc(CC4CN(C(=O)CN(C)C)C4)cc3c2C(C)C)cn(C)c(=O)c1C` [Example 415]: 38 nM, 5020 nM and 40 nM.
The matching figures for `COc1cc(-c2[nH]c3ccc(C4CCCN(CC(N)=O)C4)cc3c2C(C)C)cn2ncnc12` (stereo not drawn) [Example 225]: 12 nM, 4730 nM and 4 nM.
Turning to `COc1cc(-c2[nH]c3ccc(CC4CN(CC#N)C4)cc3c2C(C)C)cn2ncnc12` [Example 432], the half-inhibitory concentration (IC50) was 49 nM at human TLR8, 5350 nM against human TLR9 and 8 nM at human TLR7.
In the same order, the values of `COc1cc(-c2[nH]c3ccc(C4CN(CCS(C)(=O)=O)C4)cc3c2C(C)C)cn2ncnc12` [Example 265] are 2.9 nM, 3420 nM and 1 nM.
The matching figures for `COc1cc(-c2[nH]c3ccc(C4CCC(NC5CC5)CC4)cc3c2C(C)C)cn2ncnc12` (stereo not drawn) [Example 10]: 0.47 nM, 1260 nM and 0.17 nM.
The matching figures for `COc1cc(-c2[nH]c3ccc(C4CN(C(C)C)CCO4)cc3c2C(C)C)cn2ncnc12` (stereo not drawn) [Example 302]: 0.42 nM, 2600 nM and 2 nM.
Turning to `COc1cc(-c2[nH]c3ccc(C4CCC(N5CC[C@H](N(C)C)C5)CC4)cc3c2C(C)C)cn2ncnc12` (stereo partly drawn) [Example 33], the IC50 against human TLR8 amounted to 3.4 nM; on human TLR9, 491 nM; against human TLR7, 2 nM.
In the same order, the values of `CCN(C)CC(=O)NC1CCC(c2ccc3[nH]c(-c4cc(OC)c5ncnn5c4)c(C(C)C)c3c2)CC1` (stereo not drawn) [Example 132, 2-(ethyl(methyl)amino)-N-(4-(3-isopropyl-2-(8-methoxy-[1,2,4]triazole [1,5-a]pyridin-6-yl)-1H-indol-5-yl)cyclohexyl)acetamide] are 1.5 nM, 6040 nM and 0.44 nM.
In the same order, the values of `COCCN1CC(c2ccc3[nH]c(-c4cc(C)c5ncnn5c4)c(C(C)C)c3c2)OCC1(C)C` (stereo not drawn) [Example 383] are 41 nM, 13700 nM and 9 nM.
